The record followed here is patent US10952999B2, “Inhibitor of cyclin-dependent kinase CDK9” (GENFLEET THERAPEUTICS (SHANGHAI) INC., priority 2017, dated 2021).

Common to all, as to test: Cancer cell growth, Cell Titer-Glo cell viability assay, 72 hours
Common to all, as to assay type: cell-based
In general terms: ATP-based viability assays read luminescence as a measure of living cells.

The subject of test [1] is acute myeloid leukemia cell line MOLM13. To be noted: MOLM-13, 72 hours. From the text: (§1) In the examples, we used acute myelocytic leukemia (AML) OCI-AML-3, acute promyelocytic leukemia cell line NB-4, MDS-RAEB (myelodysplastic syndrome-excess blasts type) cell line SKM-1, human leukemia cell Nomo-1, acute myeloid leukemia cell line MOLM14, acute myeloid leukemia cell line MOLM13, acute myeloid leukemia cell line MV4-11, acute myeloid leukemia cell line HL-60, acute myeloid leukemia cell line OCI-AML-2, histiocytic lymphoma U-937, acute B cell leukemia cell line MEC-1, acute B cell leukemia cell line MEC-2, acute megakaryoblastic leukemia CMK, hamster lung cell CHL, hamster ovary cell CHO, human non-small cell lung cancer cell H1975, human non-small cell lung cancer cell H358, human small cell lung cancer cell H209, human lung adenocarcinoma cell H1395, human non-small cell lung cancer cell PC-9, human lung cancer cell H3122, human non-small cell lung cancer cell H2122, human non-small cell lung cancer cell H1915, human lung adenocarcinoma cell H1355, human non-small cell lung cancer cell HCC827, human breast cancer cell MDA-MB-231, human breast cancer cell MDA-MB-468, human breast cancer cell MCF-7, human breast cancer cell T47D, human breast cancer cell SK-Br-3, the above cells were purchased from ATCC.
(§2) Cell Titer-Glo® (Promega, USA) chemical self-luminescence cell viability assay kit was used to detect the number of viable cells by quantitatively measuring ATP in living cells, according to which to calculate GI50 and IC50.

Test [2] concerns acute megakaryoblastic leukemia CMK.
Excerpt: as §1, §2

Test [3] relates to acute myeloid leukemia cell line HL-60. The note with it: HL-60, 72 hours.
Excerpt: as §1, §2

In test [4] the test system is MDS-RAEB (myelodysplastic syndrome-excess blasts type) cell line SKM-1. To be noted: SKM-1, 72 hours.
Excerpt: as §1, §2

For test [5], the system named is acute myelocytic leukemia (AML) OCI-AML-3. To be noted: OCI-AML3, 72 hours.
Excerpt: as §1, §2

Test [6] deals with human leukemia cell Nomo-1. To be noted: Nomo-1, 72 hours.
Excerpt: as §1, §2

Test [7] concerns acute myeloid leukemia cell line MOLM14. To be noted: MOLM-14, 72 hours.
Excerpt: as §1, §2

Test [8] relates to acute B cell leukemia cell line MEC-2. The note with it: MEC-2, 72 hours.
Excerpt: as §1, §2

The subject of test [9] is hamster lung cell CHL. To be noted: for GI50: CHL, 72 hours.
Excerpt: as §1, §2

Test [10] deals with acute B cell leukemia cell line MEC-1. The note with it: MEC-1, 72 hours.
Excerpt: as §1, §2

In test [11] the test system is histiocytic lymphoma U-937. The note with it: U-937, 72 hours.
Excerpt: as §1, §2

The subject of test [12] is acute promyelocytic leukemia cell line NB-4. To be noted: NB4, 72 hours.
Excerpt: as §1, §2

Test [13] concerns hamster ovary cell CHO. The note with it: for GI50: CHO, 72 hours.
Excerpt: as §1, §2

For test [14], the system named is acute myeloid leukemia cell line OCI-AML-2. To be noted: OCI-AML2, 72 hours.
Excerpt: as §1, §2

The subject of test [15] is acute myeloid leukemia cell line MV4-11. To be noted: MV4-11, 72 hours.
Excerpt: as §1, §2

Usually GI50 stands for the concentration giving 50% growth inhibition. Lower therefore signals more potent growth inhibition. For `COCCN[C@H]1CC[C@H](Nc2cc(-c3csc(NCC4CCCCC4)n3)c(Cl)cn2)CC1` [Compound 10, (1r,4r)-N^1-(5-chloro-4-(2-((cyclohexylmethyl)amino)thiazol-4-yl)pyridin-2-yl)-N^4-(2-methoxyethyl)cyclohexane-1,4-diamine], the concentration for 50% growth inhibition (GI50) was found to be 820 nM in test [1] (Homo sapiens); 980 nM in test [2]; 410 nM in test [3] (Homo sapiens); 330 nM in test [4] (Homo sapiens); 560 nM in test [5] (Homo sapiens, OCI-AML-3); 600 nM in [6] (Homo sapiens). The GI50 turned out to be 330 nM in test [7] (Homo sapiens); 660 nM in test [8] (MEC2); 8 µM in [9]; 850 nM in [10] (Homo sapiens, MEC1); 340 nM in test [11] (Homo sapiens); 490 nM in [12]. Also, the figures for the GI50 in test [13], in test [14] (Homo sapiens) and in test [15] (Homo sapiens) were 780 nM, 600 nM and 1100 nM, respectively.

`N[C@H]1CC[C@H](Nc2cc(-c3csc(NCC4CCOCC4)n3)c(Cl)cn2)CC1` [Compound 2, (1r,4r)-N^1-(5-chloro-4-(2-(((tetrahydro-2H-pyran-4-yl)methyl)amino)thiazol-4-yl)pyridin-2-yl)cyclohexane-1,4-diamine]: the 50% growth inhibitory concentration (GI50) was 150 nM in test [1] (Homo sapiens); 370 nM in [2]; 550 nM in [3] (Homo sapiens); 85 nM in test [4] (Homo sapiens); 140 nM in test [5] (Homo sapiens, OCI-AML-3); 590 nM in test [6] (Homo sapiens). Besides, the concentration for 50% growth inhibition (GI50) turned out to be 140 nM in test [7] (Homo sapiens); 140 nM in [8] (MEC2); 3.5 µM in test [9]; 270 nM in test [10] (Homo sapiens, MEC1); 120 nM in test [11] (Homo sapiens); 56 nM in test [12]. Moreover, the results for the concentration for 50% growth inhibition (GI50) in test [13], in [14] (Homo sapiens) and in test [15] (Homo sapiens) were 2800 nM, 9100 nM and 140 nM, respectively.

With `NC1CCC(Nc2cc(-c3cccc(NCc4cccc(F)c4)n3)c(Cl)cn2)CC1` (centres unmarked) [HY-16462, reference compound], the GI50 in test [1] came to 32 nM; in test [2], 42 nM; in [3], 37 nM; in [4], 40 nM; in test [5] it was 47 nM; in [6], 63 nM. Moreover, the 50% growth inhibitory concentration (GI50) in test [7] was determined as 33 nM; in [8], 36 nM; in [9], 0.2 µM; in test [10] it was 48 nM; in [11], 31 nM; in test [12] it was 32 nM. Also, the GI50 was determined as 290 nM in test [13], 71 nM in test [14] and 27 nM in test [15]. Also, the “inhibitory effect on normal cell CHL (in words)” value in test [9] (CHL cells) is reported as “certain inhibitory effects”. In addition, the “inhibitory effect on normal cell CHO (in words)” value in test [13] (CHO cells) is given as “certain inhibitory effects”.

For the compound `COCCN[C@H]1CC[C@H](Nc2cc(-c3csc(OCC4CCOCC4)n3)c(Cl)cn2)CC1` [Compound 16, (1r,4r)-N^1-(5-chloro-4-(2-((tetrahydro-2H-pyran-4-yl)methoxy)thiazol-4-yl)pyridin-2-yl)-N^4-(2-methoxyethyl)cyclohexane-1,4-diamine], the concentration for 50% growth inhibition (GI50) was determined as 570 nM in [1] (Homo sapiens); 1400 nM in [2]; 450 nM in [3] (Homo sapiens); 500 nM in [4] (Homo sapiens); 630 nM in test [5] (Homo sapiens, OCI-AML-3); 1500 nM in [6] (Homo sapiens). Besides, the GI50 in test [7] (Homo sapiens) stood at 620 nM; in test [8] (MEC2) it was 970 nM; in [9] it was 3.3 µM; in test [10] (Homo sapiens, MEC1), 1400 nM; in [11] (Homo sapiens) it was 600 nM; in test [12], 580 nM. For the same compound, the GI50 in test [13] is 1300 nM; in [14] (Homo sapiens), 2100 nM; in test [15] (Homo sapiens), 630 nM.

Regarding `COCCN[C@H]1CC[C@H](Nc2cc(-c3csc(NCc4ccc(F)cc4)n3)c(Cl)cn2)CC1` [Compound 12, (1r,4r)-N^1-(5-chloro-4-(2-((4-fluorobenzyl)amino)thiazol-4-yl)pyridin-2-yl)-N^4-(2-methoxyethyl)cyclohexane-1,4-diamine], the concentration for 50% growth inhibition (GI50) in test [1] (Homo sapiens) turned out to be 290 nM; in test [2], 720 nM; in test [3] (Homo sapiens), 190 nM; in test [4] (Homo sapiens), 200 nM; in test [5] (Homo sapiens, OCI-AML-3) it was 390 nM; in [6] (Homo sapiens), 920 nM. Further, the GI50 stood at 310 nM in test [7] (Homo sapiens); 480 nM in test [8] (MEC2); 1.1 µM in test [9]; 450 nM in test [10] (Homo sapiens, MEC1); 390 nM in [11] (Homo sapiens); 410 nM in [12]. Further, the values for the GI50 in test [13], in [14] (Homo sapiens) and in [15] (Homo sapiens) were 470 nM, 410 nM and 880 nM, respectively.

For the compound `COC[C@H](C)N[C@H]1CC[C@H](Nc2cc(-c3csc(NCC4CCOCC4)n3)c(Cl)cn2)CC1` [Compound 5, (1S,4r)-N^1-(5-chloro-4-(2-(((tetrahydro-2H-pyran-4-yl)methyl)amino)thiazol-4-yl)pyridin-2-yl)-N^4-((S)-1-methoxypropan-2-yl)cyclohexane-1,4-diamine], the concentration for 50% growth inhibition (GI50) was found to be 640 nM in test [1] (Homo sapiens); 1500 nM in [2]; 390 nM in [3] (Homo sapiens); 350 nM in test [4] (Homo sapiens); 820 nM in test [5] (Homo sapiens, OCI-AML-3); 1000 nM in test [6] (Homo sapiens). Also, the GI50 amounted to 490 nM in test [7] (Homo sapiens); 770 nM in test [8] (MEC2); 3.6 µM in test [9]; 1300 nM in test [10] (Homo sapiens, MEC1); 430 nM in [11] (Homo sapiens); 460 nM in test [12]. Also, the GI50 in [13] worked out at 1200 nM; in test [14] (Homo sapiens), 470 nM; in [15] (Homo sapiens), 440 nM.

Regarding `COCCN[C@H]1CC[C@H](Nc2cc(-c3csc(SCC4CCOCC4)n3)c(Cl)cn2)CC1` [Compound 17, (1r, 4r)-N^1-(5-chloro-4-(2-(((tetrahydro-2H-pyran-4-yl)methyl)mercapto)thiazol-4-yl)pyridin-2-yl)-N^4-(2-methoxyethyl)cyclohexane-1,4-diamine], the concentration for 50% growth inhibition (GI50) in test [1] was found to be 340 nM; in test [2], 1100 nM; in test [3], 160 nM; in test [4], 330 nM; in test [5], 980 nM; in [6], 930 nM. Further, the GI50 in [7] came out at 360 nM; in test [8], 700 nM; in [9] it was 5.6 µM; in test [10], 800 nM; in test [11], 300 nM; in [12] it was 350 nM. The GI50 in test [13] came out at 610 nM; in test [14], 800 nM; in [15] it was 1100 nM.

Regarding `CNc1nc(-c2cc(N[C@H]3CC[C@H](NCCOC)CC3)ncc2Cl)cs1` [Compound 9, (1r,4r)-N^1-(5-chloro-4-(2-(methylamino)thiazol-4-yl)pyridin-2-yl)-N^4-(2-methoxyethyl)cyclohexane-1,4-diamine], the GI50 in test [1] (Homo sapiens) came to 1000 nM; in test [2], 1800 nM; in test [3] (Homo sapiens), 420 nM; in test [4] (Homo sapiens), 750 nM; in test [5] (Homo sapiens, OCI-AML-3), 1100 nM; in test [6] (Homo sapiens) it was 1300 nM. Moreover, the GI50 in test [7] (Homo sapiens) is 680 nM; in test [8] (MEC2) it was 1100 nM; in [9], 1.9 µM; in test [10] (Homo sapiens, MEC1) it was 1400 nM; in test [11] (Homo sapiens), 850 nM; in test [12], 700 nM. Besides, the concentration for 50% growth inhibition (GI50) in [13] came to 1200 nM; in [14] (Homo sapiens), 650 nM; in test [15] (Homo sapiens), 530 nM.
